# Measurements as given in US20220175710A1, “COMBINATION THERAPY” (Akershus Universitetssykehus HF, priority 2019, published 2022).
# “Also recorded” adds a separate entry of the source.
# Columns and labels:
# Format in all cases: cell-based, human
# CHRFAM7A [1] = assay: Quantitative PCR of CHRFAM7A transcription in THP-1 monocyte cultures; conditions: for CHRFAM7A transcription (quantitative PCR): FIG. 6; for CHRFAM7A ("M") transcription relative to TPA-treated unstimulated condition: FIG. 7, overnight
# Method: (§1) The human acute monocytic leukemia cell line THP-1 (ATCC TIB-202, ATCC, US) was cultured in RPMI 1640 with GlutaMax (Gibco, Life Technologies, UK) supplemented with 10% fetal bovine serum (FBS), (Gibco, Life Technologies, UK) and 1% Antibiotic/Antimycotic (Gibco, Life Technologies, UK) at 37° C. and 5% CO2.
# (§2) 1,6 million cells were seeded in each well in 6-well plates and differentiated to macrophages by a 48 h treatment of 100 nM TPA (12-O-tetradecanoylphorbol-13-acetate), (Cell Signaling Technology, US). Cells were treated with 100 μM Docosahexaenoic acid (DHA), (Sigma Aldrich, Germany), 10 ng/ul Amyloid beta 1-40 (Aβ), (ApexBio, US), 10 μM PNU-120596, (Sigma Aldrich, Germany), 40 μM Galanthamine hydrobromide, (Sigma Aldrich, Germany) and combinations overnight (approximately 20 h).
# (§3) Total RNA was isolated with the RNeasy Plus Mini kit (Qiagen) using genomic DNA eliminator columns. THP-1 cells were lysed directly in the wells using 350 μl RLT Plus according to the protocol and stored at −80° C. The frozen lysate was incubated at 37° C. in a water bath until completely thawed and homogenized using QIAshredder (Qiagen) spin columns. RNA was eluted in 30 μl RNase free water and the quantity assessed using the NanoDrop ND-1000 Spectrophotometer (NanoDrop Technologies).
# (§4) 1 μg total RNA was reverse transcribed using the QuantiTect cDNA Reverse Transcription Kit (Qiagen). Due to low CHRNA7 expression (Cq values>38, Table 2), we increased RNA input to 2 μg, changed the reverse transcription kit to High Capacity Reverse Transcription Kit (Life Technologies AS) and the cDNA was preamplified using TaqMan PreAmp Master Mix (Life Technologies AS), running 18 cycles and diluted 1:20 (FIG. 7). We then obtained Cq values<27 (average 25,4) for CHRNA7 and <20 (average 18,6 for CHRFAM7A). Absolute quantification was run using CHRFAM7A and CHRNA7 synthetic oligonucleotides standards (GeneArt, Life Technologies AS). 2.5 ul cDNA diluted 1:20 after preamplification was applied per qPCR reaction using TaqMan gene expression assays CHRFAM7A (Hs04189909_m1) and CHRNA7 (Hs01063372_m1) (Thermo Fisher) and TaqMan Gene expression Master Mix (Life Technologies AS) in a total volume of 10 μl and run in triplicates on Quant Studio 7 (Applied Biosystems).
# CHRFAM7A [2] = assay: Western blot of CHRFAM7A in differentiated THP-1 cells; conditions: FIG. 5
# Description: (§5) DHA: Docosahexaenoic acid, Aβ1-40 peptides: the conventional amyloid beta peptide containing 40 amino acids.
# CHRNA7 [3] = assay: Quantitative PCR of CHRNA7 transcription in THP-1 monocyte cultures; conditions: for CHRNA7 transcription (quantitative PCR): FIG. 6; for N/M ratio (CHRNA7/CHRFAM7A transcription) / CHRNA7 ("N") transcription relative to TPA-treated unstimulated condition: FIG. 7; for CHRNA7 ("N") transcription relative to TPA-treated unstimulated condition: overnight
# Method: as §1, §2, §3, §4
# CHRNA7 [4] = assay: Western blot of CHRNA7 (56 kDa band) in TPA differentiated THP-1 cells; conditions: FIG. 5; co-stimulation with DHA and Aβ1-40 peptide, compared with DHA alone
# THP-1 cells = assay: IP LC-MS of Abeta-40 degradation in monocytic THP-1 cells
# Method: Firstly, a cell model was used to study the effect of the omega-3 fatty acid DHA on degradation of amyloid beta. Here, the THP-1 cells were incubated with and without DHA (1 μM), and subsequently with Abeta (1-40 aa, 10 ng/μL). Secondly, monocyte from healthy controls (NC) and patients with neurodegenerative diseases (AD) were isolated. In both these cases, the cells were lysed and IP LC-MS was performed.
# In FIG. 1, each bar in the graph represents the accumulated cleavage sites on each position along the 40 amino acids in Abeta 1-40. Thus the bar contains peptides of various lengths, but with the same start or end amino acid. Three parallels were analysed for each condition/sample group, which refers to the triplicate incubations of each condition, with or without DHA.
# Monocytic THP-1 cells were used as a model system, and IP LC-MS as analytical approach to investigate the effect of DHA on monocytic Abeta-40 processing.
# A THP-1 cell line culture was matured and differentiated, split to be control and stimulated parallels and this was replicated to be performed a total of 7 times (controls n=7; DHA stimulated n=7). Test cells were incubated with DHA overnight, and all samples were incubated with Abeta-40 for 1 to 2 hours. The cells were lysed by freeze-thaw cycles prior to immunoprecipitation performed with two commercial and one in-house antibody. […]
# CHRNA7 [5] = assay: Western blot of CHRNA7 (56 kDa band) in TPA differentiated THP-1 cells; conditions: for CHRNA7 (56 kDa protein) expression, conclusion in words: Table 1 / FIG. 4, both experiments
# Method: The cellular samples were tested for the presence of the α7 subtype of the nicotinic acetylcholine receptor (nAChR) by Western blot analysis on THP-1 cells that were incubated with and without Abeta1-42 and with and without DHA. The purpose of this was to show monocytic membrane expression of nAChR and to explore altered regulation of this receptor in response to DHA stimulation.
# The THP-1 cells were seeded in 6-well plates with 2 mL per well at a concentration of 830 000 cells/mL (experiment 1) or 860 000 cells/ml (experiment 2), and differentiated using 100 nM TPA (12-O-Tetradecanoylphorbol-13-Acetate) for 24 hours. For the experiments, DHA was added to give a concentration of 100 uM (experiment 1) or 10 uM and 100 uM (experiment 2), and Aβ42 was added at a final concentration of 2.5 ng/ul.
# The cells were incubated overnight (18 hours). Each DHA experiment had parallels of cells not incubated with DHA. After incubation the cells were kept cold, scraped loose and transferred to 15-ml tubes. Cells were washed twice with cold PBS before resuspended in 100 ul PBS and transferred to an Eppendorf tube. The cells were lysed through five freeze thaw cycles, and total protein in each sample was determined by the BCA protein assay. Samples were stored at −80° C. upon analysis.
# Western blot analysis was performed cat no 21379-1-AP, Proteintech, using 1:1000 using dilution. The secondary antibody was a goat anti-rabbit IgG-HRP (cat no 4030-05, Southern Biotech) diluted 1:2000. Solvents for dilutions were as described below.
# Samples were dissolved in 4× Laemmli buffer w/ b-ME (BioRad and, respectively) denatured at 95° C. for 5 min, and a quantity of 12 μg protein/sample/well was loaded to the gel. A volume of 10 uL of Precision Plus protein Dual Xtra Color Standards (BioRad) was used for molecular weight estimation. The samples were resolved in 8-16% gradient SDS-PAGE (Criterion TGX precast gels, BioRad) and immunoblotted onto PVDF membranes (GE Healthcare). Membranes were blocked in 5% non-fat dried milk in 1× Tris Buffered Saline containing 0.1% Tween20 (1×TBS-T) (BioRad) at room temperature for 1 h and incubated overnight at 4° C. with primary antibodies in 1×TBS-T with 1% non-fat dried milk. After washing, the membranes were incubated with secondary antibody in 5% non-fat dried milk in 1×TBS-T for 1 h at room temperature. The blots were visualized by ECL Plus Western blotting detection system (GE Healthcare) according to the supplier's instructions. Membranes were visualized on the LAS-3000 mini (Fujifilm Corporation) and band intensities were quantified using MultiGauge analysis software (Fujifilm Corporation).
# Bands presented are at the predicted MW of the nAChR (56 kDa).
# as §5
# [6] = co-stimulation with DHA and Aβ1-40 peptide, compared with DHA alone
# [7] = stimulus as labelled plus Amyloid β 1-40 10 ng/ul
# [8] = stimulus as labelled, nothing else added, 100 μM DHA, 10 μM PNU-120596, 40 μM Galanthamine hydrobromide, 10 ng/ul Aβ 1-40
compound,measurement,setting,value
"CC/C=C\C/C=C\C/C=C\C/C=C\C/C=C\C/C=C\CCC(=O)O [DHA, (4Z, 7Z, 10Z, 13Z, 16Z, 19Z)-4,7, 10, 13, 16, 19-docosahexaenoic acid]",CHRFAM7A transcription (quantitative PCR),CHRFAM7A [1]; DHA alone,decrease
same,CHRFAM7A transcription (quantitative PCR),CHRFAM7A [1]; [6],more pronounced
same,"CHRFAM7A (""M"") transcription relative to TPA-treated unstimulated condition",CHRFAM7A [1]; [7],reduces
same,"CHRFAM7A (""M"") transcription relative to TPA-treated unstimulated condition",CHRFAM7A [1]; [8],reduced
same,CHRFAM7A expression (Western blot),CHRFAM7A [2]; DHA alone,decrease
same,CHRFAM7A expression (Western blot),CHRFAM7A [2]; [6],more pronounced
same,CHRNA7 transcription (quantitative PCR),CHRNA7 [3]; DHA alone,increase
same,CHRNA7 transcription (quantitative PCR),CHRNA7 [3]; [6],more pronounced
same,N/M ratio (CHRNA7/CHRFAM7A transcription),CHRNA7 [3]; [7],increased; also recorded: higher
same,"CHRNA7 (""N"") transcription relative to TPA-treated unstimulated condition",CHRNA7 [3]; [7],unaltered; also recorded: increases
same,N/M ratio (CHRNA7/CHRFAM7A transcription),"CHRNA7 [3]; stimulus as labelled, no Amyloid β added",increased
same,"CHRNA7 (""N"") transcription relative to TPA-treated unstimulated condition",CHRNA7 [3]; [8],stable
same,CHRNA7 expression (Western blot),CHRNA7 [4],more pronounced
same,"Abeta cut pattern (enzymatic activities), DHA versus no DHA","THP-1 cells; DHA 1 μM, then Abeta 1-40 10 ng/μL, FIG. 1",differing enzymatic activities
same,average ratio of catabolic peptides in DHA versus control samples,"THP-1 cells; DHA overnight, then Abeta-40 for 1 to 2 hours, controls n=7, DHA stimulated n=7, semi-quantitative",1.3 (12% RSD)
same,~56 kDa Band signal intensity,"CHRNA7 [5]; Exp 1, 100 uM Dha alone, TPA differentiated THP-1, 18 hours",3.5E+06
same,~56 kDa Band signal intensity,"CHRNA7 [5]; Exp 1, Ab1-42 (2.5 ng/ul) + 100 uM Dha, 18 hours",3.0E+06
same,~56 kDa Band signal intensity,"CHRNA7 [5]; Exp 2, Ab1-42 (2.5 ng/ul) + 10 uM Dha, 18 hours",2.6E+06
same,~56 kDa Band signal intensity,"CHRNA7 [5]; Exp 2, Ab1-42 (2.5 ng/ul) + 100 uM Dha, 18 hours",2.7E+06
same,CHRNA7 expression (Western blot),"CHRNA7 [5]; FIG. 5, DHA alone",increase
same,"CHRNA7 (56 kDa protein) expression, conclusion in words",CHRNA7 [5],upregulation
Amyloid 13: the conventional amyloid beta peptide containing 40 amino acids,"CHRFAM7A (""M"") transcription relative to TPA-treated unstimulated condition",CHRFAM7A [1]; [8],reduced
same,"CHRNA7 (""N"") transcription relative to TPA-treated unstimulated condition",CHRNA7 [3]; [8],reduced
COc1cc(OC)c(NC(=O)Nc2cc(C)on2)cc1Cl [PNU-120596],"CHRFAM7A (""M"") transcription relative to TPA-treated unstimulated condition",CHRFAM7A [1]; [8],smaller changes
same,"CHRNA7 (""N"") transcription relative to TPA-treated unstimulated condition",CHRNA7 [3]; [8],smaller changes
Ab1-42: the conventional amyloid beta peptide containing 42 amino acids,~56 kDa Band signal intensity,"CHRNA7 [5]; Exp 1, Ab1-42 only, 2.5 ng/ul, 18 hours",1.7E+06
same,~56 kDa Band signal intensity,"CHRNA7 [5]; Exp 2, Ab1-42 only, 2.5 ng/ul, 18 hours",2.1E+06
same,"CHRNA7 (56 kDa protein) expression, conclusion in words",CHRNA7 [5],lower expression
